Test results as given in patent US20220313682A1, “Pharmaceutical Compositions of (6aS)-6-methyl-5,6,6a,7-tetrahydro-4H-dibenzo[de,g]quinoline-10,11-diol” (Aclipse One Inc., priority 2019, published 2022).

Assay: Solubility in aqueous media / aqueous buffer solutions
Format: physicochemical

SMILES | solubility in the aqueous buffer solutions (hydrochloride salt, aqueous buffer solutions) | solubility in the aqueous media at various pH (free base, aqueous media at various pH)
CN1CCc2cccc3c2[C@@H]1Cc1ccc(O)c(O)c1-3.Cl [(6aS)-6-methyl-5,6,6a,7-tetrahydro-4H-dibenzo[de,g]quinoline-10,11-diol hydrochloride] | low solubility | 
CN1CCc2cccc3c2[C@@H]1Cc1ccc(O)c(O)c1-3 [(6aS)-6-methyl-5,6,6a,7-tetrahydro-4H-dibenzo[de,g]quinoline-10,11-diol] |  | low solubility
